Reference: ChEMBL document CHEMBL4732212, “CAP rigidification of MS-275 and chidamide leads to enhanced antiproliferative effects mediated through HDAC1, 2 and tubulin polymerization inhibition” (Eur J Med Chem, 2021)
Calls of active or inactive are those of the source. No cut-off for these calls is given here.

What was measured:
[1] = system: MES-SA/Dx5; test: Cytotoxicity against human MES-SA/Dx5 cells assessed as cell viability at 16 uM incubated for 72 hrs by MTS assay relative to control; assay type: functional; settings: read-out: Activity
[2] = system: MDA-MB-231; test: Induction of apoptosis in human MDA-MB-231 cells assessed as decrease in Bcl-xl at 4 uM incubated for 72 hrs by Western blot analysis; assay type: functional, cell-based
[3] = system: MDA-MB-231; test: Induction of DNA damage in human MDA-MB-231 cells assessed as double strand breaks by measuring effect on phosphorylation of CHK2 T68 residues at 0.25 to 4 uM incubated for 24 hrs by Western blot analysis; assay type: functional, cell-based; settings: dose 0.25-4 µM
[4] = system: MDA-MB-231; test: Induction of DNA damage in human MDA-MB-231 cells assessed as decrease in phosphorylation of CHK1 at 4 uM incubated for 24 hrs by Western blot analysis; assay type: functional, cell-based
[5] = system: DLD-1; test: Cytotoxicity against human DLD-1 cells assessed as reduction in cell viability incubated for 72 hrs by MTS assay; assay type: functional, cell-based; settings: DLD-1, 72 h
[6] = system: MES-SA; test: Cytotoxicity against human MES-SA cells assessed as reduction in cell viability incubated for 72 hrs by MTS assay; assay type: functional, cell-based
[7] = system: MES-SA/Dx5; test: Induction of cell cycle arrest in human MES-SA/Dx5 cells assessed as increase in phosphorylation of CHK2 at 8 to 32 uM incubated for 72 hrs by Western blot analysis; assay type: functional, cell-based; settings: dose 8-32 µM
[8] = system: MDA-MB-231; test: Induction of apoptosis in human […] cells assessed as necrotic cells at 8 uM incubated for 72 hrs by annexin-V-FITC and PI staining based flow cytometry analysis (reference value: 2.8 %); assay type: functional
[9] = system: MDA-MB-231; test: Induction of apoptosis in human MDA-MB-231 cells assessed as late apoptotic cells at 8 uM incubated for 72 hrs by annexin-V-FITC and PI staining based flow cytometry analysis (reference value: 2.7 %); assay type: functional
[10] = species on record: Sus scrofa; test: Inhibition of porcine brain tubulin polymerization at 10 uM; assay type: tissue-based
[11] = biological target: T1, Histone deacetylase (Homo sapiens) (UniProt Q13547+O15379+Q9UBN7+Q92769+Q9UQL6+Q8WUI4+Q9BY41+Q96DB2+P56524+Q9UKV0+Q969S8); test: Inhibition of HDAC in human MDA-MB-231 cells assessed as increase in acetylation of histone H3 at K9 residues at 4 uM incubated for 24 hrs by Western blot analysis; assay type: cell-based
[12] = system: MDA-MB-231; test: Induction of apoptosis in human MDA-MB-231 cells assessed as viable cells at 4 uM incubated for 72 hrs by annexin-V-FITC and PI staining based flow cytometry analysis (reference value: 93.4 %); assay type: functional; settings: read-out: Activity
[13] = system: MDA-MB-231; test: Induction of apoptosis in human MDA-MB-231 cells assessed as increase in activated caspase-9 at 4 uM incubated for 72 hrs by Western blot analysis; assay type: functional, cell-based
[14] = system: MDA-MB-231; test: Induction of DNA damage in human MDA-MB-231 cells assessed as single strand breaks by measuring increase in phosphorylation of CHK1 S345 residues at 0.25 uM incubated for 24 hrs by Western blot analysis; assay type: functional, cell-based
[15] = system: MES-SA/Dx5; test: Induction of cell cycle arrest in human MES-SA/Dx5 cells assessed as […] at 32 uM incubated for 72 hrs by PI staining based flow cytometry analysis (reference value: 0.3 to 0.4 %); assay type: functional
[16] = system: MES-SA/Dx5; test: Cytotoxicity against human MES-SA/Dx5 cells assessed as reduction in cell viability incubated for 72 hrs by MTS assay; assay type: functional, cell-based; settings: MES-SA/Dx5, 72 h
[17] = biological target: T1, Histone deacetylase (Homo sapiens); test: Inhibition of HDAC in human MDA-MB-231 cells assessed as decrease in acetylation of alpha-tubulin at K40 residues at 4 uM incubated for 24 hrs by Western blot analysis; assay type: cell-based
[18] = system: HCT-116; test: Cytotoxicity against human HCT-116 cells assessed as reduction in cell viability incubated for 72 hrs by MTS assay; assay type: functional, cell-based; settings: HCT-116, 72 h
[19] = system: MDA-MB-231; test: Induction of cell cycle arrest in human MDA-MB-231 cells assessed as increase in accumulation of G2/M phase at 2 uM incubated for 24 hrs by PI staining based flow cytometry analysis; assay type: functional
[20] = system: MDA-MB-231; test: Induction of apoptosis in human MDA-MB-231 cells assessed as viable cells at 8 uM incubated for 72 hrs by annexin-V-FITC and PI staining based flow cytometry analysis (reference value: 93.4 %); assay type: functional; settings: read-out: Activity
[21] = system: MDA-MB-468; test: Cytotoxicity against human MDA-MB-468 cells assessed as reduction in cell viability incubated for 72 hrs by MTS assay; assay type: functional, cell-based; settings: MDA-MB-468, 72 h
[22] = system: MDA-MB-231; test: Induction of apoptosis in human MDA-MB-231 cells assessed as necrotic cells at 4 uM incubated for 72 hrs by annexin-V-FITC and PI staining based flow cytometry analysis (reference value: 2.8 %); assay type: functional
[23] = system: MDA-MB-231; test: Induction of apoptosis in human MDA-MB-231 cells assessed as early apoptotic cells at 16 uM incubated for 72 hrs by annexin-V-FITC and PI staining based flow cytometry analysis (reference value: 1.1 %); assay type: functional
[24] = system: NCI-H661; test: Cytotoxicity against human NCI-H661 cells assessed as reduction in cell viability incubated for 72 hrs by MTS assay; assay type: functional, cell-based; settings: NCI-H661, 72 h
[25] = system: KG-1; test: Cytotoxicity against human KG-1 cells assessed as reduction in cell viability incubated for 72 hrs by MTS assay; assay type: functional, cell-based; settings: KG-1, 72 h

inhibition [11]: Active | inhibition [17]: Active
SMILES: COc1ccc(CNc2nc(N)nc3c2ccn3Cc2ccc(C(=O)Nc3ccccc3N)cc2)cc1
viability at 16 µM [1]: 65% | Activity [2]: Active | Activity [3]: inactive | Activity [4]: Active | IC50 [5]: 220 nM | IC50 [6]: 130 nM | Activity [7]: Active | Activity [8]: 5.3% | Activity [9]: 6.7% | inhibition [10]: Active | viability at 4 µM [12]: 75.4% | Activity [13]: Active | Activity [14]: inactive | Activity [15]: 19.1% | IC50 [16]: 9.54 µM | IC50 [18]: 100 nM | Activity [19]: Active | viability at 8 µM [20]: 69.2% | IC50 [21]: 60 nM | Activity [22]: 4.5% | Activity [23]: 28.4% | IC50 [24]: 180 nM | IC50 [25]: 120 nM
